Assay results taken from patent publication US20160051529A1, “PPAR-SPARING THIAZOLIDINEDIONES AND COMBINATIONS FOR THE TREATMENT OF NEURODEGENERATIVE AND OTHER METABOLIC DISEASES” (METABOLIC SOLUTIONS DEVELOPMENT COMPANY LLC, priority 2012, published 2016).

Key:
[1] = biological target: T1, human PPARγ ligand binding domain (LBD) (Homo sapiens, UniProt P37231); test: TR-FRET PPARγ competitive binding assay (Invitrogen LanthaScreen)
T1 construct: purchased Invitrogen #4894
T1 sequence (P37231 238-503 limits assumed): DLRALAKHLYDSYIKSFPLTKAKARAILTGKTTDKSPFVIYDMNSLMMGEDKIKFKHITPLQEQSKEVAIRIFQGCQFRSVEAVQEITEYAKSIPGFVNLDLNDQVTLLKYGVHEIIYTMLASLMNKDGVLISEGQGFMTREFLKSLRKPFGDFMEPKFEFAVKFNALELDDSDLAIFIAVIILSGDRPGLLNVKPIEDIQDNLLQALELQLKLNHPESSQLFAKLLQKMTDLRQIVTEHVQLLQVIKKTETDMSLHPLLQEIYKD
Description: Whereas activation of the PPARγ receptor is generally believed to be a selection criteria to select for molecules that may have anti-diabetic and insulin sensitizing pharmacology, this invention finds that activation of this receptor should be a negative selection criterion. Molecules will be chosen from this chemical space because they have reduced, not just selective, activation of PPARγ. […] The assays are conducted by first evaluation of the direct interactions of the molecules with the ligand binding domain of PPARγ. This can be performed with a commercial interaction kit that measures the direct interaction by florescence using rosiglitazone as a positive control.
PPARγ binding is measured by a TR-FRET competitive binding assay using Invitrogen LanthaScreen™ TR-FRET PPARγ Competitive Binding Assay (Invitrogen #4894). This assay uses a terbium-labeled anti-GST antibody to label the GST tagged human PPARγ ligand binding domain (LBD). A fluorescent small molecule pan-PPAR ligand tracer binds to the LBD causing energy transfer from the antibody to the ligand resulting in a high TR-FRET ratio. Competition binding by PPARγ ligands displace the tracer from the LBD causing a lower FRET signal between the antibody and tracer. The TR-FRET ratio is determined by reading the fluorescence emission at 490 and 520 nm using a Synergy2 plate reader (BioTek). The ability of several exemplary compounds of the present invention to bind to PPARγ was also measured using a commercial binding assay (Invitrogen Corporation, Carlsbad, Calif.) that measures the test compounds ability to bind with PPAR-LBD/Fluormone PPAR Green complex. These assays were performed on three occasions with each assay using four separate wells (quadruplicate) at each concentration of tested compound. The data are mean and SEM of the values obtained from the three experiments. Rosiglitazone was used as the positive control in each experiment. Compounds were added at the concentrations shown, which ranged from 0.1-100 micromolar.

[2] = Glucose, triglycerides and insulin, T/C normalized to vehicle; type: in vivo; settings: normalized to vehicle activity
PGC-1α = test: Expression of PGC-1α mRNA in precursor BAT cells with norepinephrine; type: cell-based; settings: 3 μM compound for seven days, then 1 μM norepinephrine for 2 hours, quantitative PCR
Description: Another example of the ability of augmented signaling between cyclic nucleotides and compounds of Formula I is shown by the effect on expression of PGC-1α, a known regulator of mitochondrial biogenesis. Increased numbers of mitochondria are predictive of utility for the reduction of body weight.
Precursor BAT cells were isolated as described above and treated with or without 3 μM compounds: 1.] Compound A: 5-(4-(2-(5-ethylpyridin-2-yl)-2-oxoethoxy)benzyl)-1,3-thiazolidine-2,4-dione; 2.] Compound B: 5-(4-(2R)-2-(5-ethylpyridin-2-yl)-2-hydroxyethoxyy)benzyl)-1,3-thiazolidine-2,4-dione; or 3.] Compound C: 5-(4-(2-(3-methoxyphenyl)-2-oxoethoxy)benzyl)-1,3-thiazolidine-2,4-dione for seven days followed by treatment with 1 μM norepinephrine for 2 hours. Total RNA was isolated from the cells and the RNA message (mRNA) for PGC-1α was measured by quantitative polymerase chain reactions.

5XFAD mice = test: Plaque pathology in hippocampus of 5XFAD mice; type: in vivo; settings: chow delivering 390 mg/kg for 4 weeks
Description: 5XFAD mice harbor 5 familial mutations (3 in the amyloid precursor protein; 2 in presenilin 1) and develop robust plaque pathology as early as 6 weeks. These mice were treated beginning at 2 months of age for a period of 4 weeks with control chow or chow containing Compound A to deliver 390 mg/kg for 4 weeks.
Referring to FIG. 7, […] stained plaques were counted in the hippocampus of the 5XFAD mice. […] Note that the plaques having less than 100 micron size were excluded from the graph, and those amounted to about 70% of all the plaques in both Control and Compound A treated groups.

Structure (SMILES)	IC50 [1] [µM]	also measured
CCOC(Cc1ccc(OCC(=O)c2ccc(CC)cn2)cc1)C(=O)O (stereo not drawn) [Compound 1]	17.8	–
COc1cccc(C(=O)COc2ccc(CC(=O)C(=O)O)cc2)c1 [Compound 10]	111	–
CCO/C(=C\c1cccc(OCC(=O)c2cccc(OC)c2)c1)C(=O)O [Compound 13]	21.8	Insulin (T/C) ([2]; no dose given): 0.81 T/C; Triglycerides (mean T/C) ([2]; no dose given): 0.86 T/C
CCO/C(=C\c1ccc(OCC(=O)c2ccc(CC)cn2)cc1)C(=O)O [Compound 14]	96.1	–
COc1cccc(C(=O)COc2cccc(O[C@H](C)C(=O)O)c2)c1 [Compound 15]	100	–
CCO/C(=C\c1ccc(OC/C(=N/OC)c2ccc(CC)cn2)cc1)C(=O)O [Compound 17]	21	–
CCOC(Cc1ccc(OC/C(=N/OC)c2ccc(CC)cn2)cc1)C(=O)O (stereo not drawn) [Compound 18]	62.2	–
CCOC(Oc1ccc(OC[C@@H](O)c2ccc(CC)cn2)cc1)C(=O)O (stereo partly drawn) [Compound 35]	0.3	Insulin (T/C) ([2]; @7.5): 0.20@7.5 T/C; Triglycerides (mean T/C) ([2]; @7.5): 0.32@7.5 T/C; Insulin (T/C) ([2]; @15): 0.44@15 T/C; Triglycerides (mean T/C) ([2]; @15): 0.24@15 T/C; Insulin (T/C) ([2]; @30): 0.11@30 T/C; Triglycerides (mean T/C) ([2]; @30): 0.17@30 T/C
CCOC(Oc1ccc(OC[C@H](O)c2ccc(CC)cn2)cc1)C(=O)O (stereo partly drawn) [Compound 36]	17.6	Triglycerides (mean T/C) ([2]; @0.5): 0.50@0.5 T/C; Insulin (T/C) ([2]; @7.5): 0.26@7.5 T/C; Triglycerides (mean T/C) ([2]; @7.5): 0.41@7.5 T/C; Insulin (T/C) ([2]; @15): 0.33@15 T/C; Insulin (T/C) ([2]; @30): 0.46@30 T/C; Triglycerides (mean T/C) ([2]; @30): 0.38@30 T/C
COc1cccc(C(=O)COc2ccc(C[C@@H](O)C(=O)O)cc2)c1 [Compound 53]	> 263	–
CCc1ccc(C(=O)COc2ccc(CC3SC(=O)NC3=O)cc2)nc1 (stereo not drawn) [Compound A, 5-(4-(2-(5-ethylpyridin-2-yl)-2-oxoethoxy)benzyl)-1,3-thiazolidine-2,4-dione]	–	PGC-1α mRNA (message) (PGC-1α): an increase in PGC-1α message was observed; plaques having less than 100 micron size, share of all the plaques (5XFAD mice; same in the control group): about 70%; size and number of thioflavin stained plaques in the hippocampus (5XFAD mice; versus control chow): less than the control group
CCc1ccc([C@@H](O)COc2ccc(CC3SC(=O)NC3=O)cc2)nc1 (stereo partly drawn) [Compound B]	–	PGC-1α mRNA (message) (PGC-1α): an increase in PGC-1α message was observed
COc1cccc(C(=O)COc2ccc(CC3SC(=O)NC3=O)cc2)c1 (stereo not drawn) [Compound C, 5-(4-(2-(3-methoxyphenyl)-2-oxoethoxy)benzyl)-1,3-thiazolidine-2,4-dione]	–	PGC-1α mRNA (message) (PGC-1α): an increase in PGC-1α message was observed

The next lines start with results.

IC50 [1] [µM]	Structure (SMILES)	also measured
6.07	CCOC(Cc1ccc(OCC(=O)c2cccc(OC)c2)cc1)C(=O)O (stereo not drawn) [Compound 47]	Insulin (T/C) ([2]; no dose given): 0.26 T/C; Triglycerides (mean T/C) ([2]; no dose given): 0.33 T/C
14.7	CCOC(Cc1ccc(OCC(=NO)c2cccc(OC)c2)cc1)C(=O)O (stereo not drawn) [Compound 48]	–
157	CCOC(Cc1ccc(OC[C@@H](F)c2cccc(OC)c2)cc1)C(=O)O (stereo partly drawn) [Compound 50]	–
18.9	CCO[C@@H](Cc1ccc(OC[C@@H](NC(=O)OC(C)(C)C)c2ccccc2)cc1)C(=O)O [Compound 55]	–
33.7	CCO[C@@H](Cc1ccc(OC[C@@H](NC(C)=O)c2ccccc2)cc1)C(=O)O [Compound 56]	–
39.7	CCO[C@@H](Cc1ccc(OC[C@@H](N)c2ccccc2)cc1)C(=O)O [Compound 57]	–
12.3	CCO[C@@H](Cc1ccc(OC[C@@H](NC=O)c2ccccc2)cc1)C(=O)O [Compound 58]	–
> 250	CCO[C@@H](Cc1ccc(OC[C@H](NC=O)c2ccccc2)cc1)C(=O)O [Compound 59]	–
80.3	CCO[C@@H](Cc1ccc(OC[C@H](NS(C)(=O)=O)c2ccccc2)cc1)C(=O)O [Compound 60]	–
14.1	CCOC(=O)[C@H](Cc1ccc(OC[C@@H](NC(=O)OC(C)(C)C)c2ccccc2)cc1)OCC [Compound 61]	–
84.8	CCOC(=O)[C@H](Cc1ccc(OC[C@@H](N)c2ccccc2)cc1)OCC [Compound 62]	–
